Data: PMC4412257, “2′,6′-Dimethylphenylalanine: A Useful Aromatic Amino Acid Surrogate for Tyr or Phe Residue in Opioid Peptides” (International Journal of Medicinal Chemistry, 2012)
Where two headings read alike, the source gives them in different places.

Assays:
δ-opioid receptor [1] = experiment: δ-opioid receptor binding, brain homogenate, versus [3H]DT; design: species or system rat; conditions: ratio of Ki values
Procedure: The receptor-binding affinities of synthetic analogs were determined using rat brain, as previously reported [45].

μ-opioid receptor [2] = conditions: versus [3H]DAMGO, read-out: Receptor binding affinity, Ki ± S.E., μ, cited from earlier work
δ-opioid receptor [3] = conditions: cited from earlier work; for Ki: versus [3H]DT, read-out: Receptor binding affinity, Ki ± S.E., δ; for μ/δ: ratio of Ki values
[4] = tested on: GPI (μ): guinea pig ileum, predominantly μ-receptors; conditions: cited from earlier work; for Ke of CTAP against the peptide, GPI: antagonist CTAP (μ), GPI assay
[5] = biological target: MVD (δ): mouse vas deferens, δ-receptors; conditions: cited from earlier work; for Ke of CTAP against the peptide, MVD: antagonist CTAP (μ); for Ke of CTAP against the peptide, MVD / Ke of N,N(Me)2Dmt-Tic-OH against the peptide, MVD: MVD assay; for Ke of N,N(Me)2Dmt-Tic-OH against the peptide, MVD: antagonist N,N(Me)2Dmt-Tic-OH (δ); for GPI/MVD: ratio of IC50 values
μ-opioid receptor [6] = experiment: μ-opioid receptor binding, brain homogenate, versus [3H]DAMGO; design: species or system rat; conditions: ratio of Ki values
Procedure: (§1) The receptor-binding affinities of synthetic analogs were determined using rat brain, as previously reported. […] The GPI tissue contains predominantly μ-receptors, while MVD tissue contains δ-receptors. […] In contrast, 11 was devoid of activity in both assays, as expected from the binding data. […] This analog turned out to be a potent μ-antagonist and a weak δ-antagonist. […] The results of 13 are in line with observations that Dmt-D-Phe-NH2 and its C-terminally extended analog are μ-receptor antagonists.
Two methyl groups on Dmp^4 may interfere with the receptor interaction due to a reduction in conformational flexibility and/or enhanced lipophilicity. To further examine the usefulness of Dmp-containing DYN peptides as κ-opioid receptor ligands, the in vitro bioactivity of DYN peptides was determined using the GPI assay (Table 5).

[7] = tested on: GPI (μ): guinea pig ileum, predominantly μ-receptors; experiment: isolated guinea pig ileum (GPI) assay; type: cell-based; conditions: ratio of IC50 values
Procedure: as §1

mice = tested on: mice; design: method as in PMID 12657261; conditions: formalin test in mice, subcutaneous injection, cited from earlier work
[8] = tested on: MVD (δ): mouse vas deferens, δ-receptors; experiment: isolated mouse vas deferens (MVD) assay; type: cell-based; conditions: ratio of IC50 values
Procedure: as §1

Row | Molecule | Ki (μ-opioid receptor [2]; Table 6) [nM] | Ki (δ-opioid receptor [3]; Table 6) [nM] | IC50 ([4]; Table 6) [nM] | δ/μ (μ-opioid receptor [6]; Table 1) | MVD/GPI ([7]; Table 1) | Ki (μ-opioid receptor [2]; Table 1, rat brain) [nM] | Ki (δ-opioid receptor [3]; Table 1, rat brain) [nM] | IC50 ([4]; Table 1) [nM] | IC50 ([5]; Table 1) [nM] | further results
1 | [Phe^1]ENK [compound 33] | 169 ± 12 | 73.7 ± 19.5 | > 10000 |  |  |  |  |  |  | μ/δ (δ-opioid receptor [1]; Table 6): 2.29; IC50 ([5]; Table 6): > 10000 nM
2 | Tyr-D-Ala-Phe-Gly-Tyr-Pro-Ser-NH2 [DM, reference compound] |  |  |  | 2087 | 9.2 | 0.092 ± 0.024 | 192 ± 51 | 3.74 ± 0.57 | 34.4 ± 4.8 | 
3 | [D-Dmp^3]YRFB [compound 23] |  |  |  | >45679 | 15.4 | 0.0618 ± 0.0109 | > 2820 | 19.8 ± 1.9 | 305 ± 53 | 
4 | CN1CC[C@]23c4c5ccc(O)c4O[C@H]2[C@@H](O)C=C[C@H]3[C@H]1C5 [Morphine, reference compound] |  |  |  |  |  |  |  |  |  | ED50, First phase (mice): 3811 nmol/kg; ED50, Second phase (mice): 7319 nmol/kg
5 | [Dmp^3]YRFB [compound 22] |  |  |  | 15543 | 16.7 | 0.035 ± 0.0167 | 544 ± 143 | 1.67 ± 0.24 | 27.9 ± 5 | Ke of CTAP against the peptide, GPI [4]: 22.7 nM; Ke of CTAP against the peptide, MVD [5]: 11.4 nM; Ke of N,N(Me)2Dmt-Tic-OH against the peptide, MVD [5]: >1000 nM; ED50, First phase (mice): 98.6 nmol/kg; ED50, Second phase (mice): 113 nmol/kg
6 | [Dmp^1,3]YRFB [compound 25] | 0.0216 ± 0.0062 | 1690 ± 458 | 2.76 ± 0.56 |  |  |  |  |  |  | δ/μ (μ-opioid receptor [6]; Table 6): 78148; MVD/GPI ([7]; Table 6): 18.2; Ke of CTAP against the peptide, GPI [4]: 21.3 nM; Ke of CTAP against the peptide, MVD [5]: 10.2 nM; Ke of N,N(Me)2Dmt-Tic-OH against the peptide, MVD [5]: >1000 nM
7 | [D-Dmp^3]EM2 [compound 15] |  |  |  | 1737 | 6.15 | 2.4 ± 0.56 | 4170 ± 954 | 30.4 ± 2.8 | 187 ± 30 | 
8 | [Dmp^3]EM2 [compound 14] |  |  |  | 34967 | 3.68 | 0.0304 ± 0.0208 | 1060 ± 336 | 0.378 ± 0.104 |  | 
9 | [D-Dmp^1]EM2 [compound 39] | 40.4 ± 2.6 | 9710 ± 3820 | 1390 ± 221 |  |  |  |  |  |  | δ/μ (μ-opioid receptor [6]; Table 6): 241; IC50 ([5]; Table 6): 2330 ± 943 nM
10 | [Dmp^3]DT [compound 20] |  |  |  |  |  | 1100 ± 111 | 0.00105 ± 0.00043 | 6700 ± 992 | 0.022 ± 0.003 | 
11 | [Dmt^1]ENK [reference compound] |  |  |  |  |  |  |  |  |  | Ki (μ-opioid receptor [2]; Table 1, footnote c): 0.0068 ± 0.003 nM; Ki (μ-opioid receptor [2]; Table 6, footnote c): 0.0068 ± 0.003 nM; μ/δ (δ-opioid receptor [3]; Table 1, footnote c): 0.22; Ki (δ-opioid receptor [3]; Table 1, footnote c): 0.031 ± 0.011 nM; μ/δ (δ-opioid receptor [3]; Table 6, footnote c): 0.22; Ki (δ-opioid receptor [3]; Table 6, footnote c): 0.031 ± 0.011 nM; IC50 ([4]; Table 1, footnote c): 0.55 ± 0.17 nM; IC50 ([4]; Table 6, footnote c): 0.55 ± 0.17 nM; IC50 ([5]; Table 1, footnote c): 0.17 ± 0.02 nM; GPI/MVD ([5]; Table 1, footnote c): 3.24; IC50 ([5]; Table 6, footnote c): 0.17 ± 0.02 nM; GPI/MVD ([5]; Table 6, footnote c): 3.24
12 | [D-Dmp^4]EM2 [compound 17] |  |  |  | 17 | 3.86 | 106 ± 20 | 1760 ± 834 | 587 ± 119 | 2270 ± 603 | 
13 | [Dmt^1, Dmp^4]ENK [compound 12] |  |  |  |  |  | 0.03 ± 0.011 |  | 2 ± 0.51 | 1.45 ± 0.26 | μ/δ (δ-opioid receptor [1]; Table 1): 0.19; GPI/MVD ([8]; Table 1): 1.38
14 | Tyr-D-Ala-Phe-Glu-Val-Val-Gly-NH2 [DT, reference compound] | 314 ± 53 | 0.0226 ± 0.0077 | 5440 ± 812 |  |  | 314 ± 53 | 0.0226 ± 0.0077 | 5440 ± 812 | 0.582 ± 0.029 | μ/δ (δ-opioid receptor [1]; Table 1): 13894; GPI/MVD ([8]; Table 1): 9342; IC50 ([5]; Table 6): 0.582 ± 0.029 nM; Ke of CTAP against the peptide, MVD [5]: >1000 nM; Ke of N,N(Me)2Dmt-Tic-OH against the peptide, MVD [5]: 0.64 nM
15 | [Dmp^1]DT [compound 34] | 156 ± 33 | 0.329 ± 0.077 | 4040 ± 1120 |  |  |  |  |  |  | μ/δ (δ-opioid receptor [1]; Table 6): 475; IC50 ([5]; Table 6): 0.272 ± 0.054 nM
16 | [Dmt^1]DT [compound 36] | 0.261 ± 0.06 | 0.012 ± 0.002 | 88.4 ± 22.7 |  |  |  |  |  |  | μ/δ (δ-opioid receptor [1]; Table 6): 21.8; GPI/MVD ([8]; Table 6): 1700; IC50 ([5]; Table 6): 0.052 ± 0.007 nM
17 | [Dmp^4]EM2 [compound 16] |  |  |  | 578 | 1.63 | 13.2 ± 1.9 | 7620 ± 2570 | 196 ± 40 | 320 ± 55 | 
